Key:
Assay type in all cases: cell-based
[1] = test system: CCL17 expression in HaCaT cells; assay: CCL17 protein in media (ELISA) of HaCaT cells induced by TNF-α and/or IFN-γ; conditions: HaCaT cells, 2.5, 5, 10 and 20 μg/mL for one hour, then TNF-α, IFN-γ, or both, 18 hours, FIG. 3
Procedure: (§1) Also, to figure out an effect of ergostenol at a protein level, HaCaT cells were treated with ergostenol at a concentration of 2.5, 5, 10 and 20 μg/mL for one hour, then treated with molecules related to inflammation induction, i.e., TNF-α, IFN-γ, or TNF-α and IFN-γ, and then cultured for 18 hours. With regard to CCL17 and CCL22, the amount of proteins present in media was identified with an ELISA kit (R&D Systems, Minneapolis, Minn., USA). Captured antibodies (anti-CCL17 antibody and anti-CCL22 antibody) at 2 μg/mL were inserted into a 96-well plate in an amount of 50 μL, respectively, subjected to coating for two hours, and then subjected to blocking with PBS containing 1% BSA for one hour. Then, a collected sample was inserted into each well in an amount of 100 μL, respectively, and subjected to reaction for two hours. The cells were washed three times with PBS-T, after which 50 μL of detector antibodies (anti-CCL17 antibody and anti-CCL22 antibody) were inserted into each well at 100 ng/well, and subjected to reaction for two hours. […] The cells were fully washed with PBS-T, after which a substrate solution (TMB) was added thereto, such that absorbance thereof was measured at 450 nm.

[2] = test system: CCL17 expression in HaCaT cells; assay: CCL17 gene expression (RT-PCR) in HaCaT cells induced by TNF-α and/or IFN-γ; conditions: HaCaT cells, 2.5, 5, 10 and 20 μg/mL for one hour, then TNF-α, IFN-γ, or both, 18 hours; RNA level, FIG. 2
Procedure: (§2) 1×10^6 HaCaT cells were moved into a 6-well microplate, cultured in DMEM containing 10% (v/v) FBS for 12 hours, washed with PBS, and then treated in 2 mL of serum free media with ergostenol at each concentration of 2.5, 5, 10 and 20 μg/mL for one hour. After that, the cells were treated with inflammation-inducing molecules, i.e., TNF-α, IFN-γ, or TNF-α and IFN-γ, and then cultured for 18 hours. To identify a change in CCL17 and CCL22 expressions at an RNA level, RNAs were isolated with Trizol reagent kit (Invitrogen, Gaithersburg, Md.) according to a manufacturer's manual. A reverse transcription was performed with the isolated RNAs as a template to obtain cDNAs. A reverse transcription buffer solution (5 mM MgCl2, 1 mM dNTP, 2.5 U/μL reverse transcriptase, and 2.5 μM oligo (dT) 15 as a primer (omniscript RTkit, Qiagen)), 0.5 U of RNase inhibiter, 2.5 μM of oligo (dT) and 2.5 U of reverse transcriptase were added into 2 μg of […], and subjected to reaction at 37° C., such that the cDNAs were obtained. To quantify the obtained cDNAs, PCR was performed with the primers of a following table 1, after which the amplified DNAs were identified with 1% agarose gel.

[3] = test system: CCL22 expression in HaCaT cells; assay: CCL22 protein in media (ELISA) of HaCaT cells induced by TNF-α and/or IFN-γ; conditions: HaCaT cells, 2.5, 5, 10 and 20 μg/mL for one hour, then TNF-α, IFN-γ, or both, 18 hours, FIG. 3
Procedure: as §1

[4] = test system: CCL22 expression in HaCaT cells; assay: CCL22 gene expression (RT-PCR) in HaCaT cells induced by TNF-α and/or IFN-γ; conditions: HaCaT cells, 2.5, 5, 10 and 20 μg/mL for one hour, then TNF-α, IFN-γ, or both, 18 hours; RNA level, FIG. 2
Procedure: as §2

Ergostenol
decrease: level of CCL17 protein expression [1] | level of CCL17 gene expression [2] | level of CCL22 protein expression [3] | level of CCL22 gene expression [4]
